Experiments:
porcine model of CPR = assay: Proposed porcine model study of cardiac arrest and resuscitation; format: in vivo, Sus scrofa; conditions: hypothesis
Source text: A porcine model of cardiac arrest and resuscitation in domestic pigs, weighing between 40±2 kg, is utilized for a proposed study that applicant is conducting. The porcine model is selected because (1) it has a large body mass and the timing of reduction in body temperature during hypothermia is close to that of the human. […] (3) A large animal model facilitates non-invasive measurements of myocardial function by echocardiographic methods, preserving an intact chest wall for conventional CPR, and specifically, precordial compression. (4) Our research team has had extensive experience for more than 20 years with the porcine model, under conditions of cardiac arrest and resuscitation.
Our aims are to investigate the effects of WIN55, 212-2, the cannabinoid CB1/CB2 receptor agonist, when administered immediately following resuscitation with or without physical surface body cooling on blood temperature, post resuscitation myocardial and cerebral functions, and duration of survival in our porcine model of CPR. We hypothesize that when WIN55, 212-2 is administered immediately following resuscitation, it will rapidly achieve the target blood temperature (34° C., <3 hours), therefore improving post-resuscitation myocardial and cerebral functions, and duration of survival. We further hypothesize that when WIN55, 212-2 is administered in combination with physical surface body cooling, the combination will further reduce the duration for achieving target blood temperature (<1 hour). It will therefore further improve post-resuscitation myocardial and cerebral functions, and duration of survival.
To test our hypotheses, the independent variables are the WIN55, 212-2 and WIN55, 212-2 with physical surface cooling. […]
In experiments, male domestic pigs, weighing 40±2 kg, are fasted overnight except for free access to water. […] End-tidal PC02 is monitored with an infrared analyzer (Model 01R-7101A, Nihon Kohden Corp, Tokyo, Japan). […]

[1] = tested on: rat model of cardiac arrest and resuscitation; assay: Rat model of cardiac arrest and resuscitation; format: in vivo
Procedure: The effects of WIN 55, 212-2 were investigated initially in our rat model of cardiac arrest and resuscitation. […] Ventricular fibrillation was induced and untreated for 6 mins and followed by 8 mins of CPR. Resuscitation was then attempted with defibrillation. WIN 55, 212-2 was infused intravenously 10 mins after resuscitation in a dose of 1 mg/kg/hour and continued for 6 hours. The body temperature decreased from 37 to 34° C. within 4 hours after infusion (FIG. 1).

cannabinoid receptors = conditions: versus other neurotransmitter and ion channels; cited from earlier work
normal rats = conditions: cited from earlier work

SMILES: Cc1c(C(=O)NN2CCCCC2)nn(-c2ccc(Cl)cc2Cl)c1-c1ccc(Cl)cc1 [SR141716A]
- blockade of the effects of WIN55, 212-2 (porcine model of CPR; pre-treatment with selective CB1 antagonist): completely blocked

SMILES: Cc1c(C(=O)c2cccc3ccccc23)c2cccc3c2n1[C@H](CN1CCOCC1)CO3 [WIN 55, 212-2]
- time after infusion for body temperature decrease to 34 ° C. ([1]; 1 mg/kg/hour i.v. infusion for 6 hours): ≤ 4 h
- body temperature decreased to ([1]; 1 mg/kg/hour i.v. infusion from 10 mins after resuscitation for 6 hours, from 37 ° C.): 34 °C
- survival ([1]; all animals that received the drug): more than 72 hours
- neurological deficits ([1]; survivors): minimal neurological deficits
- post resuscitation myocardial function (ejection fraction, FIG. 2) ([1]; versus controls): significantly better than the controls
- selectivity for cannabinoid receptors (cannabinoid receptors): highly selective
- body temperature reduced to (normal rats; intramuscular injection, from 37 ° C.): 34 °C
- duration hypothermia was maintained (normal rats; intramuscular injection): up to 5 hours
- hypothermia, dose dependence (normal rats; intramuscular injection): produced hypothermia in a dose-dependent manner
- hypothermia effect with selective CB1 antagonist (normal rats; selective CB1 antagonist given): completely blocked
- time to achieve target blood temperature (34° C.) (porcine model of CPR; administered immediately following resuscitation, drug alone): < 3 h
- time to achieve target blood temperature (porcine model of CPR; in combination with physical surface body cooling): < 1 h

Source: patent US8841292B2, “Induced hypothermia” (Weil Institute of Critical Care Medicine, priority 2011, dated 2014)
